Literature values, collected in patent publication US11998629B2, “Method for dyeing keratinous material, comprising the use of an organosilicon compound, an effect pigment and a film-forming polymer” (Henkel AG & Co. KGaA, priority 2019, dated 2024).

Details: 25° C.

solubility in water	Molecule	other results
–	CCN(Cc1cccc(S(=O)(=O)[O-])c1)c1ccc(C(=C2C=CC(=[N+](CC)Cc3cccc(S(=O)(=O)[O-])c3)C=C2)c2ccccc2S(=O)(=O)[O-])cc1.[Na+].[Na+] [Acid Blue 9]	water solubility: greater than 20 % by weight
more than 7 g/L	O=S(=O)([O-])c1ccc(N=Nc2c(O)ccc3ccccc23)cc1.[Na+] [Acid Orange 7, sodium salt of 4-[(2-hydroxy-1-naphthyl)azo]benzenesulfonate]	–
2.5 mg/mL	Nc1cc(S(=O)(=O)[O-])cc2cc(S(=O)(=O)[O-])c(N=Nc3ccccc3)c(O)c12.[Na+].[Na+] [Acid Red 33, disodium salt of 5-amino-4-hydroxy-3-(phenylazo)-naphthalene-2,7-disulphonate]	–
–	O=C([O-])C1=NN(c2ccc(S(=O)(=O)[O-])cc2)C(=O)C1N=Nc1ccc(S(=O)(=O)[O-])cc1.[Na+].[Na+].[Na+] (stereo not drawn) [Acid Yellow 23, trisodium salt of 4,5-dihydro-5-oxo-1-(4-sulfophenyl)-4-((4-sulfophenyl)azo)-1H-pyrazole-3-carboxylic acid]	solubility in water (in words): readily soluble
20 mg/mL	mixture of the sodium salts of mono- and disulfonic acids of 2-(2-quinolyl)-1H-indene-1,3(2H)-dione [Acid Yellow 3]	–

Molecule	solubility in water	other results
O=C([O-])c1c(Cl)c(Cl)c(Cl)c(Cl)c1-c1c2c(Br)cc(=O)c(Br)c-2oc2c(Br)c(O)cc(Br)c12.O=C([O-])c1c(Cl)c(Cl)c(Cl)c(Cl)c1-c1c2c(Br)cc(=O)c(Br)c-2oc2c(Br)c(O)cc(Br)c12.[Na+].[Na+] [Acid Red 92, disodium salt of 3,4,5,6-tetrachloro-2-(1,4,5,8-tetrabromo-6-hydroxy-3-oxoxanthen-9-yl)benzoic acid]	greater than 10 g/L	–
